Results as given in patent US10071954B2, “Hydrogen peroxide-activated compounds as selective anti-cancer therapeutics” (University of Cincinnati, priority 2014, dated 2018).
Where two headings read alike, the source gives them in different places.

Tests used:
MA9.3RAS AML cells = assay: MTT cytotoxicity assay in MA9.3RAS AML cells; type: cell-based, human
Method: (§1) Cells were seeded at a density of 4×10^4 cells/well in a 96-well plate and incubated at 37° C. overnight. Then cells were treated for 48 hours with indicated concentrations of freshly dissolved compounds. The plates were centrifuged at 1500×g for 5 minutes at 4° C. to pellet the cells and the medium containing compounds was discarded; fresh medium containing 20 μL of MTT (5 mg/mL) was added to each well and incubated for an additional 4 h. The medium was removed. After adding 200 μL of DMSO to each well, the optical densities at 575 nm were determined. Cytotoxicity data are expressed as IC50 values obtained from the fit to a four parameter sigmoid using the graphing software KaleidaGraph (Synergy Software). All R^2 values were greater than 0.98 and standard errors of the three replicates were less than 20%.
Structural components within 1 were then probed to determine effect on potency. The goal was to obtain activity that matched the two natural products, PTL and PLG, which show efficacy in tumor xenografts in mice. As a model system cytotoxicity of synthesized agents in the MA9.3RAS AML cell line was examined. These cells are transformed CD34^+ human blood stem cells engineered to express both an MLL-AF9 fusion protein and the common oncogene NrasG12D. Culturing was accomplished as previously described by Wunderlich, et al., Leukemia 24(10):1785-88 (2010). The molecular signatures associated with these cells closely mimic those identified in primary AML patient samples and the MLL-fusion is associated with poor survival. Cytotoxicity studies were performed in triplicates using an MTT cell proliferation assay. All MTT assays were repeated twice.

[1] = system: CD34+ normal human blood stem cells vs MA9.3RAS AML cells; assay: Selectivity factor: ratio of IC50 of normal cells over IC50 of AML cells; type: cell-based; conditions: for selectivity factor (ratio of IC50 of normal cells over IC50 of AML cells): CD34+ normal human blood stem cells / MA9.3RAS AML cells
Source text: (§2) The selectivity of select compounds was examined by treatment of primary CD34^+ normal human blood stem cells. These are untransformed and are genetically similar to MA9.3RAS cells except they lack the MLL-AF9 oncogene and active Nras^G12D oncogene. It is essential that reactive agents be selective since off-target reactivity is of great concern. In anti-cancer compounds, a selectivity factor, which in this instance is the ratio between the IC50 of normal cells over the IC50 of the AML cells, of one log unit is desired. Compound 1 is marginally selective with a ratio of 2.0±0.2. […] Conversion of the aniline to an alkyl amine led to improved selectivity.

[2] = Oxidation of compound 1 to 2 in PBS, HPLC analysis; type: physicochemical
Method: To mimic cellular addition, 1 was incubated in PBS with limiting N-acetylcysteine and the products were analyzed by HPLC (FIG. 3C). The limiting N-acetylcysteine was necessary due to the formation of multiple addition products, since addition of a thiol to the aromatic ring makes further oxidation and addition easier. Compound 1 was converted to 2 in the absence of exogenous oxidant at a rate of 0.011±0.002 min^−1 (FIG. 3D, grey line), which leads to approximately 50% conversion in one hour. ROS-induced activation of 1 was then assessed. In the presence of 10 mM H2O2, a ten-fold excess, the rate of conversion was enhanced by […] to 0.6±0.1 min^−1. Once 2 was formed, N-acetylcysteine was added and NAC-2 was rapidly produced (FIG. 3C, black line) as confirmed by FTMS (FIG. 3E).

[3] = system: B_MA9 + Nras (Individual 2 transformed with MLL-AF9 and NrasG12D); assay: IC50 panel, B_MA9 + Nras; type: cell-based
Source text: (§3) Selectivity of compound 14 was examined by measuring IC50 against a variety of cell types, including AML cells obtained from individuals as well as common cell lines and healthy untransformed cells.

[4] = system: B_MA9 (Individual 2 transformed with MLL-AF9); assay: IC50 panel, B_MA9; type: cell-based
Source text: as §3

[5] = system: A_MA9 + Nras (Individual 1 transformed with MLL-AF9 and NrasG12D); assay: IC50 panel, A_MA9 + Nras; type: cell-based
Source text: as §3

[6] = system: A_MA9 + FLT3 (Individual 1 transformed with MLL-AF9 and FLT3-ITD); assay: IC50 panel, A_MA9 + FLT3; type: cell-based
Source text: as §3

[7] = system: MOLM13 (common AML cell line); assay: IC50 panel, MOLM13; type: cell-based; conditions: Homo sapiens, MOLM-13
Source text: as §3

[8] = system: UT (healthy untransformed cells); assay: IC50 panel, healthy untransformed cells; type: cell-based
Source text: as §3

[9] = system: CD34+ selected human umbilical cord blood cells (UCB); assay: MTT cytotoxicity assay in CD34+ selected umbilical cord blood cells (normal blood stem cells); type: cell-based; conditions: for IC50: CD34+ selected human umbilical cord blood cells, 48 hours treatment, MTT, read-out: IC50 against UCB
Method: as §1, §2

KEAP1 = assay: Western blot against KEAP1 normalized to beta-actin; type: cell-based; conditions: AML cells
Method: Finally, reactivity of 14 in a cell was examined (FIG. 8B). To accomplish this, western blot against KEAP1, normalized to beta-actin was performed. KEAP1 is a signaling molecule that inhibits NRF2^25, the transcription factor that regulates anti-oxidant concentrations in cells.

[10] = system: B_MA9 + FLT3 (Individual 2 transformed with MLL-AF9 and FLT3-ITD); assay: IC50 panel, B_MA9 + FLT3; type: cell-based
Source text: as §3

AML cells = assay: Cellular ROS level by DCF fluorescence assay; type: cell-based
Method: Though it is widely accepted that bulk AML cells have elevated concentrations of reactive oxygen, it was desirable to ensure that the instant models had higher levels of ROS than healthy cells. CD34+ blood stem cells were harvested from three donors. Cells were counted, incubated with 2,7-dihydrodichlorofluorescein (DCF) diacetate, and their respective fluorescence compared after 30 min (FIG. 7). After deacylation, DCF is oxidized by a broad spectrum of ROS species and oxidases. Thus is a marker of general ROS and oxidation within cells. The three CD34+ selected UCB cell populations each derived from different healthy donors referred as #1 through #3 (FIG. 7) had fluorescence intensity of 0.69±0.03 (p<0.002), 0.60±0.03 (p<10^−6), 0.54±0.02 (p<10^−6) compared to 1.00±0.02 in the AML cell model.
In order for 14 to be ROS-activatable, it needs to enter a cell and react with hydrogen peroxide, thereby lowering a cell's total ROS level as measured by DCF fluorescence (FIG. 8A). It should be noted that because 14 is highly lethal, concentrations ten-fold higher than the IC50 are required to lower a cell's ROS level. […] Similar experiments lacking addition of 14 show statistically significant increases in fluorescence intensities (p<0.001 for all time points while pretreated data set was not statistically significant from each other) with the endpoint having an intensity of 5.02±0.08.

[11] = system: HL60 (common AML cell line); assay: IC50 panel, HL60; type: cell-based; conditions: Homo sapiens, HL-60
Source text: as §3

[12] = system: Kasumi1 (common AML cell line); assay: IC50 panel, Kasumi1; type: cell-based; conditions: Homo sapiens, Kasumi 1
Source text: as §3

[13] = Oxidation of compound 14, HPLC analysis; type: physicochemical
Method: These products were produced via both spontaneous and hydrogen-peroxide induced oxidation but not under an argon atmosphere (FIG. 4C right hand side). […] Importantly, addition of one molar equivalent hydrogen peroxide led to a near instantaneous conversion to the oxidized products. Using the lower limit of t1/2 less than 1 min leads to a large rate enhancement. Initially, the two products were isolated and a high-resolution MS was obtained on both. […] Several tautomers of 14-ox are possible (see FIG. 5A).

[14] = system: A_MA9 (Individual 1 transformed with MLL-AF9 fusion); assay: IC50 panel, A_MA9; type: cell-based
Source text: as §3

[15] = Homo sapiens, MA9.3RAS AML cell line, MTT cell proliferation assay (Table 2 and text), read-out: IC50
[16] = Homo sapiens, MA9.3RAS, MA9.3 AML cells, MTT assay (Table 3), read-out: IC50

In the case of `COc1cc(/C=C/C(=O)N2CCC=CC2=O)cc(OC)c1OC` [PLG, piperlongumine, reference compound], the IC50 (MA9.3RAS AML cells; [15]) is reported as 2 ± 1 µM and the “selectivity factor (ratio of IC50 of normal cells over IC50 of AML cells)” value [1] is reported as 3.7±1.
`O=C(CNC1CCCCC1)Nc1cc([N+](=O)[O-])ccc1O` [Compound 17] showed an IC50 (MA9.3RAS AML cells; [16]) of 22 ± 7 µM.
`CCCN(C)CC(=O)Nc1cc(O)ccc1O` [Compound 12] showed an IC50 (MA9.3RAS AML cells; [15]) of 18 ± 2 µM.
`O=C(CO)Nc1cc(O)ccc1O` [Compound 8] showed an IC50 (MA9.3RAS AML cells; [15]) of 12 ± 3 µM.
In the case of parthenolide [PTL, reference compound], the IC50 (MA9.3RAS AML cells; MA9.3RAS AML cell line, MTT cell proliferation assay (Table 2 and text), read-out: IC50) is reported as 3 ± 1 µM and the “selectivity factor (ratio of IC50 of normal cells over IC50 of AML cells)” value [1] is reported as 2.1±0.4.
With `O=C(CSc1ccccc1)Nc1cc(O)ccc1O` [Compound 11] the “selectivity factor (ratio of IC50 of normal cells over IC50 of AML cells)” value [1] was “limited selectivity”.
With `CN(CC(=O)Nc1cc(O)ccc1O)c1ccccc1` [Compound 1] the “rate of conversion of 1 to 2” value ([2]; PBS, absence of exogenous oxidant) was 0.011 ± 0.002 min⁻¹, the “conversion of 1 to 2 in one hour” value ([2]; absence of exogenous oxidant) was “approximately 50%” and the “rate of conversion of 1 to 2” value ([2]; presence of 10 mM H2O2, ten-fold excess) was 0.6 ± 0.1 min⁻¹. For the same compound, the “rate of conversion of 1 into 2” value ([2]; with hydrogen peroxide (FIG. 3D legend)) was 0.6 min⁻¹.
With `O=C(CNC1CCCCC1)Nc1cc(O)ccc1O` [Compound 14, 2-(cyclohexylamino)-N-(2,5-dihydroxyphenyl)acetamide] the IC50 [3] was 2.5 ± 0.03 µM, the IC50 [4] was 3.7 ± 0.1 µM and the IC50 [5] was 2.3 ± 0.08 µM. The “viability of AML cells, in words” value (MA9.3RAS AML cells; FIG. 6B) was “eradicated”, the IC50 (MA9.3RAS AML cells; [15]) was 2 µM and the IC50 [6] was 1.8 ± 0.07 µM. It also gave an IC50 [7] of 6 ± 1 µM, an IC50 [8] of 22 ± 2 µM and a selectivity ([1]; AML cells vs normal blood stem cells) of 11 fold. The IC50 [9] was 20 ± 2 µM, the “viability of normal blood stem cells, in words” value ([9]; concentration that eradicated AML cells, FIG. 6B) was “did not affect viability” and the “KEAP1 level, in words” value (KEAP1; 2 μM) was “statistically significant reduction in KEAP1”. For the same compound, the “relative concentration of KEAP1 (KEAP1 to ACTB)” value (KEAP1; after 24 hrs) was 0.65±0.09, the IC50 [10] was 1.6 ± 0.1 µM and the “cellular ROS levels (DCF fluorescence), in words” value (AML cells; 20 μM, AML cells) was “time dependent loss in cellular ROS levels”. The “DCF fluorescence intensity at endpoint” value (AML cells; AML cells treated with 14, end of time course, without 14 5.02±0.08) was 4.31±0.08, the “DCF fluorescence intensity at addition of 14” value (AML cells; AML cells, start of time course) was 1.06±0.13 and the IC50 [11] was 4 µM. For the same compound, the IC50 [12] was 19 ± 3 µM, the “activation by hydrogen peroxide” value [13] was “more than 150 fold” and the “time for complete conversion of 14” value ([13]; hydrogen peroxide (FIG. 4C legend)) was “less than 0.1 hours”. The t1/2 of oxidation ([13]; normal atmosphere, pseudo-zero order kinetics) was 2.58 ± 0.217 h, the t1/2 of oxidation ([13]; one molar equivalent hydrogen peroxide) was “less than 1 min” and the “fraction of 14 converted to its oxidation product” value ([13]; two hours under argon atmosphere) was 4±3%. It also gave an IC50 [14] of 4 ± 0.7 µM.
`O=C(Nc1cc(O)ccc1O)C(NC1CCCCC1)C1CCCCC1` (stereo not shown) [Compound 19] gave an IC50 (MA9.3RAS AML cells; [16]) of 107 ± 1 µM.
`CN(CC(=O)Nc1cccc(O)c1)c1ccccc1` [Compound 5] showed an IC50 (MA9.3RAS AML cells; [15]) greater than 100 µM.
In the case of `NC1=CC(=O)C=CC1=O` [Compound 7], the IC50 (MA9.3RAS AML cells; [15]) is reported as 16 ± 2 µM and the “selectivity factor (ratio of IC50 of normal cells over IC50 of AML cells)” value [1] is reported as “Neither compound 6 nor compound 7 were selective”.
`Nc1ccc(O)c(NC(=O)CNC2CCCCC2)c1` [Compound 16, N-(5-amino-2-hydroxyphenyl)-2-(cyclohexylamino)acetamide] gave an IC50 (MA9.3RAS AML cells; Homo sapiens, MA9.3RAS, 48 hours treatment, MTT, read-out: IC50 against MA9.3RAS AML cells) of 3 ± 1 µM, an IC50 (MA9.3RAS AML cells; [16]) of 5 ± 2 µM and an IC50 [9] of 55 ± 4 µM.
Work on `CN(CC(=O)NC1=CC(=O)C=CC1=O)c1ccccc1` [Compound 2] yielded an IC50 (MA9.3RAS AML cells; [15]) of 21 ± 4 µM.
In the case of `CC(=O)Nc1cc(O)ccc1O` [Compound 6], the IC50 (MA9.3RAS AML cells; [15]) is reported as 35 ± 5 µM and the “selectivity factor (ratio of IC50 of normal cells over IC50 of AML cells)” value [1] is reported as “Neither compound 6 nor compound 7 were selective”.
For `O=C(COc1ccccc1)Nc1cc(O)ccc1O` [Compound 10], the “selectivity factor (ratio of IC50 of normal cells over IC50 of AML cells)” value [1] was “limited selectivity”.
Work on `CN(CC(=O)Nc1ccccc1O)c1ccccc1` [Compound 4] yielded an IC50 (MA9.3RAS AML cells; [15]) greater than 100 µM.
In the case of `O=C(CNc1ccccc1)Nc1cc(O)ccc1O` [Compound 9], the IC50 (MA9.3RAS AML cells; [15]) is reported as 13 ± 2 µM.
In the case of `C[C@@H](NC1CCCCC1)C(=O)Nc1cc(O)ccc1O` [Compound 18], the IC50 (MA9.3RAS AML cells; [16]) is reported as 104 ± 2 µM.
`COc1ccc(OC)c(NC(=O)CN(C)c2ccccc2)c1` [Compound 3] showed an IC50 (MA9.3RAS AML cells; [15]) greater than 100 µM.
